Measurements as given in the NIST ThermoML archive (doi:10.1016/j.jct.2012.05.012).
Numbers after ± are expanded uncertainties.

Columns and labels:
[1] = refractive index (Na D-line) (dimensionless); details: 101 kPa, Liquid, Standard Abbe refractometry
[2] = for mass density: 101 kPa, Buoyancy - hydrostatic balance; for mass density / surface tension liquid-gas: Liquid; for surface tension liquid-gas: Maximal bubble pressure

Compound `CCCCn1cc[n+](C)c1.NCC(=O)[O-]` [1-butyl-3-methylimidazolium glycinate] has a refractive index ([1]; 293.15 K) of 1.5091 ± 0.0004, a refractive index ([1]; 298.15 K) of 1.5085 ± 0.0004 and a refractive index ([1]; 303.15 K) of 1.5068 ± 0.0004. It also gave a refractive index ([1]; 308.15 K) of 1.5049 ± 0.0004, a refractive index ([1]; 313.15 K) of 1.5038 ± 0.0004 and a refractive index ([1]; 318.15 K) of 1.5029 ± 0.0004. The refractive index ([1]; 323.15 K) was 1.5019 ± 0.0004, the mass density ([2]; 283.15 K) was 1120.6 ± 0.5 kg/m3 and the surface tension liquid-gas ([2]; 283.15 K) was 44.3 ± 0.4 mN/m. For the same compound, the mass density ([2]; 288.15 K) was 1117.4 ± 0.5 kg/m3, the surface tension liquid-gas ([2]; 288.15 K) was 44 ± 0.4 mN/m and the mass density ([2]; 293.15 K) was 1114.2 ± 0.5 kg/m3. The surface tension liquid-gas ([2]; 293.15 K) was 43.8 ± 0.4 mN/m, the mass density ([2]; 298.15 K) was 1110.9 ± 0.5 kg/m3 and the surface tension liquid-gas ([2]; 298.15 K) was 43.5 ± 0.4 mN/m. It also gave a mass density ([2]; 303.15 K) of 1107.8 ± 0.5 kg/m3, a surface tension liquid-gas ([2]; 303.15 K) of 43.2 ± 0.4 mN/m and a mass density ([2]; 308.15 K) of 1104.7 ± 0.5 kg/m3. For the same compound, the surface tension liquid-gas ([2]; 308.15 K) was 42.9 ± 0.4 mN/m, the mass density ([2]; 313.15 K) was 1101.6 ± 0.5 kg/m3 and the surface tension liquid-gas ([2]; 313.15 K) was 42.6 ± 0.4 mN/m. It also gave a mass density ([2]; 318.15 K) of 1098.6 ± 0.5 kg/m3, a surface tension liquid-gas ([2]; 318.15 K) of 42.2 ± 0.4 mN/m and a mass density ([2]; 323.15 K) of 1095.5 ± 0.5 kg/m3. For the same compound, the surface tension liquid-gas ([2]; 323.15 K) was 41.8 ± 0.4 mN/m, the mass density ([2]; 328.15 K) was 1092.3 ± 0.5 kg/m3 and the surface tension liquid-gas ([2]; 328.15 K) was 41.5 ± 0.4 mN/m. It also gave a Glass transition temperature ([2]; Glass, DTA) of -81.80 ± 4 °C.
